The text below walks through data of article PMC8470334, “N-Heterocyclic Carbene Iron Complexes as Anticancer Agents: In Vitro and In Vivo Biological Studies” (Molecules, 2021).

The subject of one data set is A2780 cell line. Description: MTS cell viability assay (CellTiter 96), A2780. Type of data set: cell-based, human. The note with it: for IC50: A2780, 48 h exposure, MTS, mean ± SEM; for SI (selectivity index): IC50 of fibroblasts / IC50 of A2780. As for the experimental part: (§1) The in vitro cytotoxic potential of complexes Fe1 and Fe2 was evaluated through the CellTiter 96®Aqueous Non-Radioactive Cell Proliferation Assay using MTS, as described in Section 3.3.2 [26].
(§2) The antiproliferative activity of both complexes was evaluated through the exposure of the A2780 cell line to 0.01–50 µM of complexes Fe1 or Fe2 (Figure 3A) and of the HCT116 cell line to 0.1–50 µM of complexes Fe1 or Fe2 (Figure 3B) for 48 h.
(§3) Human colorectal carcinoma (HCT116) and normal dermal fibroblasts cell lines were grown in Dulbecco’s modified Eagle’s medium (DMEM) (Invitrogen Corp., Grand Island, NY, USA) supplemented with 10% (v/v) foetal bovine serum and 1% (v/v) antibiotic/antimycotic solution (Invitrogen Corp.). Human ovarian carcinoma (A2780) cell line was cultivated using the Roswell Park Memorial Institute (RPMI) medium supplemented as DMEM. The supplemented medium is named complete medium. Cells were grown in an incubator with a humidified atmosphere at 5% (v/v) CO2 and 37 °C. All cell lines were purchase from ATCC (ATCC®, American Type Culture Collection, Washington, DC, USA).
(§4) The evaluation of the cytotoxic potential of the complexes Fe1 and Fe2 was obtained through the measurement in vitro of the antiproliferative activity of these complexes. Cells were plated in 96-well plates at 7.5 × 10^4 cells/mL and incubated at 37 °C with 5% (v/v) CO2. After 24 h, the culture medium was replaced with a fresh medium containing 0.01–100 µM of complexes Fe1 or Fe2 and incubated for 48 h, as described previously. DMSO 0.1% (v/v) was used as the vehicle control for all cell lines. The fibroblasts cell line was used as a control of cytotoxicity of the complexes for healthy cells. Cisplatin was used as a positive control (a common chemotherapeutic agent). Cell viability was evaluated using CellTiter 96®Aqueous Non-Radioactive Cell Proliferation Assay (Promega, Madison, WI, USA) using 3-(4,5-dimethylthiazol-2-yl)-5-(3-carboxymethoxyphenyl)-2-(4-sulfophenyl)-2H-tetrazolium, inner salt (MTS), as described previously. In metabolically active cells, enzymes present in the mitochondria catalyse a reaction in which NADPH/ NADH is produced. These enzymes can reduce the MTS reagent into a brownish-coloured product called formazan, which can be quantified by measuring the absorbance at 490 nm. The quantity of product produced is directly proportional to the number of viable cells in culture. The amount of formazan product formed was measured with a Bio-Rad Microplate Reader Model 680 (Bio-Rad, Hercules, CA, USA). Half maximal inhibitory concentration (IC50) was calculated using GraphPad Prism 6 (GraphPad Software, La Jolla, CA, USA). Selectivity index (SI) was calculated for both tumour cell lines by dividing the IC50 of fibroblasts with the IC50 of HCT116 or A2780 for complexes Fe1 and Fe2.
(In general: Formazan colour is commonly taken as a measure of viable cells.)

The test system of a further data set is HCT116 cell line. Description: MTS cell viability assay (CellTiter 96), HCT116. In kind it is cell-based, human. The note with it: for IC50: HCT116, 48 h exposure, MTS, mean ± SEM; for SI (selectivity index): IC50 of fibroblasts / IC50 of HCT116. The method, then:
as §1, §2, §3, §4

Data set [1] has as its system normal dermal fibroblasts. Description: MTS cell viability assay (CellTiter 96), fibroblasts. In kind it is cell-based, human. The note with it: 48 h exposure, mean ± SEM. As for the experimental part:
The antiproliferative effect of complexes Fe1 and Fe2 was also tested on a nontumor cell line, fibroblasts, to evaluate their antiproliferative activity in healthy cells. For that, a range of concentrations from 0.01 to 100 µM of both complexes was used (Figure 4). As previously observed for the tumour cell lines, a concentration-dependent reduction of cell viability is observed (Figure 3 and Figure 4).
Human colorectal carcinoma (HCT116) and normal dermal fibroblasts cell lines were grown in Dulbecco’s modified Eagle’s medium (DMEM) (Invitrogen Corp., Grand Island, NY, USA) supplemented with 10% (v/v) foetal bovine serum and 1% (v/v) antibiotic/antimycotic solution (Invitrogen Corp.). […]
The evaluation of the cytotoxic potential of the complexes Fe1 and Fe2 was obtained through the measurement in vitro of the antiproliferative activity of these complexes. […] Cell viability was evaluated using CellTiter 96®Aqueous Non-Radioactive Cell Proliferation Assay (Promega, Madison, WI, USA) using 3-(4,5-dimethylthiazol-2-yl)-5-(3-carboxymethoxyphenyl)-2-(4-sulfophenyl)-2H-tetrazolium, inner salt (MTS), as described previously. […] These enzymes can reduce the MTS reagent into a brownish-coloured product called formazan, which can be quantified by measuring the absorbance at 490 nm. The quantity of product produced is directly proportional to the number of viable cells in culture. […]

For another data set, the system named is zebrafish embryos. Description: Fish embryo acute toxicity test (FET). In kind it is in vivo, zebrafish (Danio rerio). Conditions: for LC50: early blastula stage up to 72 hpf, Logit and Probit analyses; for LOEC (lowest observed effect concentration) / NOEC (no observed effect concentration): up to 72 hpf. As for the experimental part: In addition, the mortality distribution obtained for each compound allowed the accurate estimation of the LC50 (Figure 7). […] For this reason, Fe1 and Fe2 compounds were analysed in vivo using colorectal HCT116 zebrafish xenograft.
The wild-type zebrafish were housed in a water recirculation system under controlled physicochemical conditions of temperature (26 ± 2 °C), pH (7–7.5), and conductivity (400–600 µS/cm). The fertilised eggs were collected after natural spawning and housed in Petri dishes until their use. Next, eggs were exposed to Fe1 and Fe2 and dissolved in water containing 1% DMSO. Then, toxicological analyses were carried out based on the approved standard OECD TG 236—fish embryo toxicity test (FET), with modifications. For the study, four replicates of 12 embryos were distributed for each of the 5 concentrations tested for compounds; for Fe1, the concentrations used were 15, 20, 25, 30, 35 µM), and for Fe2 were 1, 5, 10, 15, 20 µM. The performed zebrafish toxicity experiments were approved by the animal care and use committee of the University of Santiago de Compostela and the standard protocols of Spain (CEEA-LU-003 and […]). The toxicity results data were analysed by probit analysis using ToxRat Software (ToxRat Solutions. 2003. ToxRat. Software for statistical analysis of bioassays. Alsdorf, Germany).

In data set [2] the test system is human HCT116 colorectal cancer cells. Description: Zebrafish embryo xenograft assay. Type of data set: in vivo. The note with it: compared with control. The method, then: HCT116 human colorectal cancer cell line was incubated in standard conditions in a humidified incubator at 37 °C and 5% CO2 until a confluence of 70–80% was reached. Afterwards, the cells were concentrated and labelled with DiI and injected in the circulation (Duct of Cuvier) of 48 hpf zebrafish embryos in order to assay the proliferation in vivo of the cells exposed to Fe1 and Fe2. Fe1 and Fe2 (5 μM and 0.25 μM, respectively) were dissolved in the water at 1-day post injection (dpi) to allow the recovery of the embryos from the injection in the first 24 h and maintained until the end of the experiment at 3 dpi. Imaging of the embryos was performed at 1 dpi and 3 dpi to quantify the fluorescence and area of the cells in the caudal hematopoietic tissue (CHT) in the tail of the embryos, where cells invade and grow, and measure their proliferation over time to assess the inhibitory effect of the compounds assayed over the cells.
The results were calculated based on a comparison between 3 dpi and 1 dpi time points and normalised at 3 dpi against control conditions due to the nature of the lipophilic dye in the proliferation of the cells. […]
At 1 dpi, the embryos were imaged, and the compound (Fe1 and Fe2) was added to the water. […] Imaging of the embryos was performed using a fluorescence stereomicroscope (AZ-100, Nikon, Tokyo, Japan). […]

A short description of data set [3]: Solubility in buffer aqueous media. In kind it is physicochemical. Conditions: fully soluble on adding DMSO (final not above 0.1% v/v).
Data set [4] in a line: Stability in PBS by UV-visible spectrum. Type of data set: physicochemical. The note with it: PBS pH 7.0, room temperature, aerobic, over 48 h. As for the experimental part:
The stability of complexes Fe1 and Fe2 was evaluated over 48 h at room temperature by monitoring their UV–visible spectrum in PBS (pH 7.0) (Figure 2). […] Based on our previous works with Ru carbonyl metal complexes, we speculate that release of CO ligand, 2 in the case of Fe1 and 1 in the case of Fe2, may occur in the first 30 min, as the decrease profile is more pronounced for Fe1 with two CO ligands (Figure 2B,D). We could also speculate that, in the case of Fe1, both CO ligands might be replaced by water molecules, maintaining the previous charge on this novel Fe species (cationic), while in Fe2, the release of the CO ligand and replacement by water molecule would maintain this new Fe species neutral.
Complexes Fe1 and Fe2 solutions were prepared in 10 mM phosphate-buffered solution (PBS) containing 0.15 M NaCl (pH 7). All spectra were recorded for 48 h on a recorded with a Varian-Cary 100 Bio spectrophotometer (Agilent, Santa Clara, CA, USA), using a quartz cuvette with 1 cm path length in a wavelength range from 220 to 500 nm.

By IC50 is commonly meant the concentration at which inhibition is half-maximal. Regarding `N.N.[Cl][Pt][Cl]` [Cisplatin, reference compound], the IC50 with A2780 cell line is 1.9 ± 0.2 µM; with HCT116 cell line, 15.6 ± 5.3 µM.
A word on the LC50: it is the concentration that kills 50% of the test population. On to Cp(IMes)Fe(CO)I [Fe2], for which, in the data set on A2780 cell line, the IC50 was 2.91 ± 0.51 µM and the “SI (selectivity index)” value is given as 14.4. In addition, in the data set with HCT116 cell line, the midpoint of inhibition, the IC50, lay at 3.26 ± 0.1 µM and the “SI (selectivity index)” value was 12.9. Also, the IC50 in data set [1] was determined as 42 ± 0.75 µM. For the same compound, in the data set on zebrafish embryos, the LC50 was 6.86 µM, the “LOEC (lowest observed effect concentration)” value was found to be 5 µM and the “NOEC (no observed effect concentration)” value is 1 µM. In addition, in data set [2] (0.25 μM dissolved in the water from 1 dpi to 3 dpi), the “proliferation of HCT116 cells in vivo” value is on record as “reduce the proliferation of human HCT116 colorectal cancer cells in vivo”. Further, in data set [3], the solubility entry was “insoluble in buffer aqueous media”. Moreover, the “stability (360 nm band)” value in data set [4] was “a lower decrease of the 360 nm peak intensity occurs within the first 30 min”.
Regarding [Cp(IMes)Fe(CO)2]I [Fe1], in the data set with A2780 cell line, it took 1.34 ± 0.25 µM to reach half-maximal inhibition (IC50) and the “SI (selectivity index)” value came to 17.7. For the same compound, in the data set with HCT116 cell line, the IC50 was found to be 0.87 ± 0.09 µM and the “SI (selectivity index)” value is 27.1. For the same compound, the IC50 in data set [1] amounted to 23.61 ± 0.14 µM. In the data set with zebrafish embryos, the LC50 stood at 24.6 µM, the “LOEC (lowest observed effect concentration)” value is 20 µM and the “NOEC (no observed effect concentration)” value is listed as 15 µM. In data set [2] (5 μM dissolved in the water from 1 dpi to 3 dpi), the “proliferation of HCT116 cells in vivo” value is “reduce the proliferation of human HCT116 colorectal cancer cells in vivo”. In data set [3], the solubility entry is listed as “insoluble in buffer aqueous media”. Also, in data set [4], the “stability (360 nm band)” value was “rapidly transformed into a new Fe species that is then stable, at least, until 24 h”.
